# Experimental data: US20150010933A1, “Novel Screening Methods” (The Trustees of the University of Pennsylvania, priority 2012, published 2015)
# How the values were obtained:
# Format in all cases: biochemical
# [1] = biological target: ATP synthesis activity of M. smegmatis membranes; assay: ATP synthesis assay with M. smegmatis membranes (luciferase/luciferin luminescence, 384 well plate); settings: 10 μg/ml M. smegmatis membrane, 1 mM NADH, 25 μM ADP, 10 mM K-Pi, pH 7.0, total volume 20 μL; read-out: IC50, ATP synthesis activity normalized to the positive control
# [2] = test system: NADH oxidase activity of M. smegmatis membranes; assay: NADH oxidase activity assay with M. smegmatis membranes; settings: 0.2 mM NADH, 10 μg/ml membrane, pH 7.0
# Method: FIG. 10 is a graph illustrating the effect of TMC207 on the NADH oxidase activity of M. smegmatis membranes. The assay was carried out in the presence of various concentrations of TMC207. The reactions contained 0.2 mM NADH and 10 μg/ml membrane in 50 mM Hepes/2 mM MgCl2 (pH 7.0) buffer.
# [3] = test system: ΔpH across M. smegmatis membranes; assay: ΔpH across the membranes monitored with pH sensitive fluorescent dye ACMA; settings: 1 μM ACMA, 10 μg/ml M. smegmatis membrane, initiated with 1 mM NADH, pH 7.0
# Method: FIG. 11 is a graph illustrating the effect of TMC207 on ΔpH across the membranes. ΔpH was monitored by using a pH sensitive fluorescent dye 9-amino-6-chloro-2-methoxyaridine (ACMA). The reactions contained 1 μM ACMA, 10 μg/ml M. smegmatis membrane in 5 mM Hepes/2 mM MgCl2 buffer (pH 7.0). The reaction was initiated by addition of 1 mM NADH (open symbols) and NADH was omitted in negative controls (closed symbols). Fluorescence was measured by a plate reader with 420 nm for excitation and 510 nm for emission wavelength.
smiles,measurement,setting,value
"COc1nc2ccc(Br)cc2cc1[C@@H](c1ccccc1)[C@@](O)(CCN(C)C)c1cccc2ccccc12 [TMC207, (1R,2S)-1-(6-bromo-2-methoxy-3-quinolyl)-4-dimethylamino-2-(1-naphthyl)-1-phenyl-butan-2-ol]",IC50,[1],0.147 nM
same,inhibition of NADH oxidase activity,[2]; at 10 μM,did not inhibit
same,inhibition of NADH oxidase activity,[2]; at only high concentrations,marginal inhibition
same,effect on ΔpH across the membrane,[3],did not affect
